Columns and labels:
Experiment in all cases: relative viability (nuclei count vs DMSO), 5 days (fraction); higher = more cells survive
Gemcitabine = compound: Nc1ccn([C@@H]2O[C@H](CO)[C@@H](O)C2(F)F)c(=O)n1 [Gemcitabine]
Outline: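 In 1536-well plates, lung cancer cell lines rested overnight at 37 °C before five library-drug doses (not always all listed), √10 apart, were pinned onto vehicle-anchored plates. Nuclei were counted with MetaXpress from 4× Hoechst images taken after 5 days without medium change. Viability compares treated-well with vehicle-well nuclei as a median over plates, and plates needed control CV below 25% plus at least one doubling to pass.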

Gemcitabine + Foretinib = compound: Nc1ccn([C@@H]2O[C@H](CO)[C@@H](O)C2(F)F)c(=O)n1 [Gemcitabine] + COc1cc2c(Oc3ccc(NC(=O)C4(C(=O)Nc5ccc(F)cc5)CC4)cc3F)ccnc2cc1OCCCN1CCOCC1 [Foretinib] (partner 0.25 µM)
Outline: (§1)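 After 5 days of treatment, lung cancer cells in 1536-well plates were fixed and stained in a single step (final 0.05% Triton X-100, 1% formaldehyde, 1 ug/ml Hoechst) and their nuclei counted on 4× images. Treatment had been applied by pin tool the day after seeding as one drug alone or as a fixed anchor-drug dose with five library-drug doses (not always all listed) in √10 steps. Relative viability is the nuclei count of treated wells divided by that of vehicle wells, and values are medians of duplicate plates.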

[1] = compound: Nc1ccn([C@@H]2O[C@H](CO)[C@@H](O)C2(F)F)c(=O)n1 [Gemcitabine] + CC(=O)c1c(C)c2cnc(Nc3ccc(N4CCNCC4)cn3)nc2n(C2CCCC2)c1=O [Palbociclib] (partner 0.5 µM)
Outline: as §1

Gemcitabine + OSI-027 = compound: Nc1ccn([C@@H]2O[C@H](CO)[C@@H](O)C2(F)F)c(=O)n1 [Gemcitabine] + COc1cccc2cc(-c3nc([C@H]4CC[C@H](C(=O)O)CC4)n4ncnc(N)c34)[nH]c12 [OSI-027] (partner 0.5 µM)
Outline: as §1

Cell Line: NCI-H2347
- relative viability (Gemcitabine; 0.001 µM): 1
- relative viability (Gemcitabine; 0.003162 µM): 0.915
- relative viability (Gemcitabine; 0.01 µM): 0.68
- relative viability (Gemcitabine; 0.03162 µM): 0.492
- relative viability (Gemcitabine; 0.1 µM): 0.381
- relative viability (Gemcitabine + Foretinib; first compound 0.001 µM): 0.817
- relative viability (Gemcitabine + Foretinib; first compound 0.003162 µM): 0.731
- relative viability (Gemcitabine + Foretinib; first compound 0.01 µM): 0.826
- relative viability (Gemcitabine + Foretinib; first compound 0.03162 µM): 0.492
- relative viability (Gemcitabine + Foretinib; first compound 0.1 µM): 0.35
- relative viability ([1]; first compound 0.001 µM): 0.412
- relative viability ([1]; first compound 0.003162 µM): 0.432
- relative viability ([1]; first compound 0.01 µM): 0.404
- relative viability ([1]; first compound 0.03162 µM): 0.364
- relative viability ([1]; first compound 0.1 µM): 0.325
- relative viability (Gemcitabine + OSI-027; first compound 0.001 µM): 0.434
- relative viability (Gemcitabine + OSI-027; first compound 0.003162 µM): 0.431
- relative viability (Gemcitabine + OSI-027; first compound 0.01 µM): 0.307
- relative viability (Gemcitabine + OSI-027; first compound 0.03162 µM): 0.242
- relative viability (Gemcitabine + OSI-027; first compound 0.1 µM): 0.24

Cell Line: NCI-H2405
- relative viability (Gemcitabine; 0.001 µM): 0.995
- relative viability (Gemcitabine; 0.003162 µM): 0.66
- relative viability (Gemcitabine; 0.01 µM): 0.533
- relative viability (Gemcitabine; 0.03162 µM): 0.268
- relative viability (Gemcitabine; 0.1 µM): 0.211
- relative viability (Gemcitabine + Foretinib; first compound 0.001 µM): 0.996
- relative viability (Gemcitabine + Foretinib; first compound 0.003162 µM): 1
- relative viability (Gemcitabine + Foretinib; first compound 0.01 µM): 0.676
- relative viability (Gemcitabine + Foretinib; first compound 0.03162 µM): 0.254
- relative viability (Gemcitabine + Foretinib; first compound 0.1 µM): 0.229
- relative viability ([1]; first compound 0.001 µM): 0.527
- relative viability ([1]; first compound 0.003162 µM): 0.483
- relative viability ([1]; first compound 0.01 µM): 0.422
- relative viability ([1]; first compound 0.03162 µM): 0.203
- relative viability ([1]; first compound 0.1 µM): 0.188
- relative viability (Gemcitabine + OSI-027; first compound 0.001 µM): 0.641
- relative viability (Gemcitabine + OSI-027; first compound 0.003162 µM): 0.314
- relative viability (Gemcitabine + OSI-027; first compound 0.01 µM): 0.32
- relative viability (Gemcitabine + OSI-027; first compound 0.03162 µM): 0.211
- relative viability (Gemcitabine + OSI-027; first compound 0.1 µM): 0.196

Cell Line: NCI-H3122
- relative viability (Gemcitabine; 0.001 µM): 0.975
- relative viability (Gemcitabine; 0.003162 µM): 1.04
- relative viability (Gemcitabine; 0.01 µM): 0.913
- relative viability (Gemcitabine; 0.03162 µM): 0.214
- relative viability (Gemcitabine; 0.1 µM): 0.14
- relative viability (Gemcitabine + Foretinib; first compound 0.001 µM): 0.94
- relative viability (Gemcitabine + Foretinib; first compound 0.003162 µM): 0.959
- relative viability (Gemcitabine + Foretinib; first compound 0.01 µM): 0.89
- relative viability (Gemcitabine + Foretinib; first compound 0.03162 µM): 0.123
- relative viability (Gemcitabine + Foretinib; first compound 0.1 µM): 0.0966
- relative viability ([1]; first compound 0.001 µM): 0.195
- relative viability ([1]; first compound 0.003162 µM): 0.177
- relative viability ([1]; first compound 0.01 µM): 0.175
- relative viability ([1]; first compound 0.03162 µM): 0.119
- relative viability ([1]; first compound 0.1 µM): 0.148
- relative viability (Gemcitabine + OSI-027; first compound 0.001 µM): 1.05
- relative viability (Gemcitabine + OSI-027; first compound 0.003162 µM): 0.918
- relative viability (Gemcitabine + OSI-027; first compound 0.01 µM): 0.246
- relative viability (Gemcitabine + OSI-027; first compound 0.03162 µM): 0.133
- relative viability (Gemcitabine + OSI-027; first compound 0.1 µM): 0.112

Cell Line: PC-3 [JPC-3]
- relative viability (Gemcitabine; 0.001 µM): 1.1
- relative viability (Gemcitabine; 0.003162 µM): 0.779
- relative viability (Gemcitabine; 0.01 µM): 0.771
- relative viability (Gemcitabine; 0.03162 µM): 0.36
- relative viability (Gemcitabine; 0.1 µM): 0.373
- relative viability (Gemcitabine + Foretinib; first compound 0.001 µM): 1.15
- relative viability (Gemcitabine + Foretinib; first compound 0.003162 µM): 0.847
- relative viability (Gemcitabine + Foretinib; first compound 0.01 µM): 0.605
- relative viability (Gemcitabine + Foretinib; first compound 0.03162 µM): 0.28
- relative viability (Gemcitabine + Foretinib; first compound 0.1 µM): 0.228
- relative viability ([1]; first compound 0.001 µM): 0.512
- relative viability ([1]; first compound 0.003162 µM): 0.472
- relative viability ([1]; first compound 0.01 µM): 0.499
- relative viability ([1]; first compound 0.03162 µM): 0.471
- relative viability ([1]; first compound 0.1 µM): 0.443
- relative viability (Gemcitabine + OSI-027; first compound 0.001 µM): 0.799
- relative viability (Gemcitabine + OSI-027; first compound 0.003162 µM): 0.656
- relative viability (Gemcitabine + OSI-027; first compound 0.01 µM): 0.378
- relative viability (Gemcitabine + OSI-027; first compound 0.03162 µM): 0.259
- relative viability (Gemcitabine + OSI-027; first compound 0.1 µM): 0.257

Cell Line: PC-14
- relative viability (Gemcitabine; 0.001 µM): 0.97
- relative viability (Gemcitabine; 0.003162 µM): 0.407
- relative viability (Gemcitabine; 0.01 µM): 0.151
- relative viability (Gemcitabine; 0.03162 µM): 0.0526
- relative viability (Gemcitabine; 0.1 µM): 0.0522
- relative viability (Gemcitabine + Foretinib; first compound 0.001 µM): 0.953
- relative viability (Gemcitabine + Foretinib; first compound 0.003162 µM): 0.649
- relative viability (Gemcitabine + Foretinib; first compound 0.01 µM): 0.293
- relative viability (Gemcitabine + Foretinib; first compound 0.03162 µM): 0.0827
- relative viability (Gemcitabine + Foretinib; first compound 0.1 µM): 0.0507
- relative viability ([1]; first compound 0.001 µM): 0.547
- relative viability ([1]; first compound 0.003162 µM): 0.2
- relative viability ([1]; first compound 0.01 µM): 0.0649
- relative viability ([1]; first compound 0.03162 µM): 0.0528
- relative viability ([1]; first compound 0.1 µM): 0.0391
- relative viability (Gemcitabine + OSI-027; first compound 0.001 µM): 0.595
- relative viability (Gemcitabine + OSI-027; first compound 0.003162 µM): 0.156
- relative viability (Gemcitabine + OSI-027; first compound 0.01 µM): 0.0375
- relative viability (Gemcitabine + OSI-027; first compound 0.03162 µM): 0.0459
- relative viability (Gemcitabine + OSI-027; first compound 0.1 µM): 0.0298
